From patent publication US9403843B2, “Cysteine protease inhibitors and uses thereof” (The Trustees of Columbia University in the City of New York, priority 2012, dated 2016)
Where two headings read alike, the source gives them in different places. One block for each compound: values may come before it.

What was measured:
papain = papain (Carica papaya (Papaya), UniProt P00784); assay: biochemical; format: biochemical
Text: (§1) Papain is representative of a family of typically lysosomal or secreted cysteine proteases, including the human cathepsins (B, C, F, H, K, L1-2, O, S, W, Z). […] Several methods have been reported in the literature for detailed kinetic analysis of the irreversible inhibition of cysteine proteases, including Cal1. […] (SEQ ID NO: 8). Using this substrate, kinetic parameters were derived using the method of Davies and co-workers, whereby “progress curves” were initially obtained measuring product formation as a function of time and fitted to y=P∞*(1−e^(−k*x)) (FIG. 7) (Cuerrier, D. et al., J Biol Chem 2007, 282, 9600-11; herein incorporated by reference in its entirety). […] Kinetic parameters (ki, KI, ki/KI) were obtained from double reciprocal plots (FIG. 7).
(§2) Full length porcine calpain (156 nM), or papain (236 pM) was added to a solution of 100 mM NaCl, 50 mM HEPES, pH 7.6, 1 mM TCEP, 30 μM Suc-LLVY-AMC (SEQ ID NO: 8) substrate, and inhibitor (0.5 to 50 μM). Calpain reactions also contained CaCl2 (1 mM and 100 mM for porcine and rat respectively). Both substrate and inhibitors were dissolved in acetonitrile/DMSO (1:1) with the exception of E-64, dissolved in water. Organic solvent remained <2% in all reactions, and most often <1%. Reactions were carried out in microtiter 96-well plates, with 150 μL per well, 30° C., and product formation was monitored over time by fluorescence (Ex/Em 346/444 nm, with 420 nm cutoff filter). Kinetic values of kobs were determined via non-linear regression using one-phase association analysis and linear plots of 1/kobs vs. 1/[I] provided kinetic constants ki and KI.

full-length human Cal1 [1] = target: T1, full-length human Cal1 (Homo sapiens (Human), UniProt P07384); assay: Calpain inhibition FRET assay; format: biochemical; settings: Table 3, 20 min incubation, FRET substrate
T1 sequence (P07384 whole entry): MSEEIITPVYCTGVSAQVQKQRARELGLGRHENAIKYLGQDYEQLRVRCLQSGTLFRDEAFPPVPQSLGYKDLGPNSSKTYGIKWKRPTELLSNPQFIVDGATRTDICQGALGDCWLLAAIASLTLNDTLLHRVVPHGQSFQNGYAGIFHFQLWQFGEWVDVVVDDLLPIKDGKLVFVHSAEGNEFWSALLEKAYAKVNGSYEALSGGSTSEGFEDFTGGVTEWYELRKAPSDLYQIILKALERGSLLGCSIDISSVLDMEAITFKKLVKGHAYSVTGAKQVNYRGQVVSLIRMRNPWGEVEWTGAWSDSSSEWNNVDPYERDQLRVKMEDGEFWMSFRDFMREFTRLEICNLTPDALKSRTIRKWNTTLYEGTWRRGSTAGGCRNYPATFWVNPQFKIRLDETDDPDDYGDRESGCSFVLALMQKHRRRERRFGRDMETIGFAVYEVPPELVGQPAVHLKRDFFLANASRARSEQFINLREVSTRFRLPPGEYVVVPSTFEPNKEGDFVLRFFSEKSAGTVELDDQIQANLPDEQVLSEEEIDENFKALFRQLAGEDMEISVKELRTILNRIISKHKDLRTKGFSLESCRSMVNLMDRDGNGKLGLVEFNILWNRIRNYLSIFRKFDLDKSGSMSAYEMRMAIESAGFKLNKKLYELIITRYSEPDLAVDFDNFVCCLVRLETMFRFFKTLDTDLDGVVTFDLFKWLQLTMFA
T1 sequence (P04632 whole entry partner): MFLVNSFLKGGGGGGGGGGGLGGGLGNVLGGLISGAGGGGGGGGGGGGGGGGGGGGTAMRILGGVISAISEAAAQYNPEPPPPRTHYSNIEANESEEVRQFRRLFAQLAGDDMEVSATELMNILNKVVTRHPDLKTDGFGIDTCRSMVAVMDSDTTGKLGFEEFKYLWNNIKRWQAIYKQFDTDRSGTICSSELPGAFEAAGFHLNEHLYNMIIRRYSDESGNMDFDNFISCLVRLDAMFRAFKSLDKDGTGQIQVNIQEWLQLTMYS

[2] = target: Full length porcine calpain (Sus scrofa (Pig), UniProt P35750); assay: Calpain inhibition kinetics studies (Suc-LLVY-AMC substrate); format: biochemical
Sequence of Full length porcine calpain (P35750 whole entry): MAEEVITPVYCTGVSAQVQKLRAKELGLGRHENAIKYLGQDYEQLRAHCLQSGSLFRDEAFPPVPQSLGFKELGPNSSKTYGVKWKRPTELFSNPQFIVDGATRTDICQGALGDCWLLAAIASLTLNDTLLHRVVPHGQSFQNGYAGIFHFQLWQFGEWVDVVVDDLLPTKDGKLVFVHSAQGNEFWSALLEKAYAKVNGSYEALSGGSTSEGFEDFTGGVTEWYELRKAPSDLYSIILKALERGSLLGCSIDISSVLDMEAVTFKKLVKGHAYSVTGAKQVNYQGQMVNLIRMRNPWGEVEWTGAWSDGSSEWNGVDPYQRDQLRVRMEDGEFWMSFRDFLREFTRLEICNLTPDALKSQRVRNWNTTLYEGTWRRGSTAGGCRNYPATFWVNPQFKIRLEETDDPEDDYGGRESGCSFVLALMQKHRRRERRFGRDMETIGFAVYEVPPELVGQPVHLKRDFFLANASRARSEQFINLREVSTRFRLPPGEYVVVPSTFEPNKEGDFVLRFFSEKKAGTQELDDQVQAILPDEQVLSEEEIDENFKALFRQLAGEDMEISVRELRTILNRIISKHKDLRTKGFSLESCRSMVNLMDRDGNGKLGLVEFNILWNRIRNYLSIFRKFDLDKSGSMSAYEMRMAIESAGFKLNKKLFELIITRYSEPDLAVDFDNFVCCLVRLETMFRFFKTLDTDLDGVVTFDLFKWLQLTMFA
Sequence of Full length porcine calpain (P04574 whole entry partner): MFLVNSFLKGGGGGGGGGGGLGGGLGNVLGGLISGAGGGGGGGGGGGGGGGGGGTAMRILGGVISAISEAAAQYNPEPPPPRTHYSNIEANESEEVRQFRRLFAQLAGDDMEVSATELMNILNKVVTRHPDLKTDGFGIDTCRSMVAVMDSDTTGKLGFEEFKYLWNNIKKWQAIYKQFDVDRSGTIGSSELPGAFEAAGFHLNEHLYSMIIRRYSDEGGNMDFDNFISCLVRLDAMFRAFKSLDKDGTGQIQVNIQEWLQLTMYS
Text: as §1, §2

full-length human Cal1 [3] = target: T1, full-length human Cal1; assay: Calpain inhibition FRET assay; format: biochemical; settings: for IC50: Table 2, approximate IC50, read-out: Cal I IC50
Method: Calpain activity was measured using full-length human Cal1 in the presence of a FRET substrate. IC50 values were approximated by co-incubation of varying concentrations of the appropriate inhibitor (10, 100, 500, 1000 nM) in the presence of the FRET substrate (DABCYL)TPLK-SPPSPR-(EDANS) (SEQ ID NO: 5) and activation buffer. […] A peptide inhibitor, Z-LLY-FMK (SEQ ID NO: 6), was used as a positive control.
The Calbiochem InnoZyme activity kit was used for measuring the inhibition effect inhibitors on human erythrocyte calpain 1 activity. […] 20 μM of the FRET substrate, 10 nM of native Cal1, and 20 μM TCEP (reducing agent) were added to the reaction mixture containing assay buffer (Tris [10 mM], NaCl [100 mM], pH 7.4). Cal1 was activated by the addition of 10 μM calcium. Cleavage of the scissile bond amide bond, K-S, releases the fluorophore (EDANS) from the internal quenching molecule (DABCYL), resulting in an increase in fluorescence measured at 320 nm excitation and 480 nm emission wave lengths for 30 min. Each inhibitor was added to the reaction mixture at varying concentrations (10 nM, 100 nM, 1 μM, and 10 μM) to detect inhibition of Cal1 and reduction in fluorescence was measured by 96 well-plate reader. Approximate IC50 values of each compound were generated using linear regression within Graphpad Prism Software.

[4] = system: Aβ-induced LTP impairment; assay: LTP rescue test; settings: assessed at 650 nM
Method: Residual levels of potentiation were averaged during the last 5 min of LTP.

Cal1cat vs CathB = assay: Competition assay for Cal1 vs CathB using the biotinylated epoxide probe; format: binding, rat; settings: individually and in combination
Method: Anti-biotin western blotting of Cal1cat (Lane 6) or CathB (Lane 7) after incubation with 27 show the expected immunoreactivity of the covalently modified proteins. […] Densitometric analysis, using means from triplicate immunoblots, was used to estimate the modification of each protein by 27 in the presence of inhibitors relative to control (Lane 1: ratio=1.0).
Cal1cat was used in place of the full length enzyme to avoid autocatalysis.
Cal1cat and CathB were pre-treated with inhibitors for 10 min, followed by a 20 min incubation with the biotinylated epoxide, 27, as illustrated in FIG. 4. […] A more quantitative estimate of selectivity was achieved by comparison of band intensities.
The appropriate inhibitor (5 μM) was pre-incubated in a mixture containing Cal1cat (2 μM), CathB (2 μM), TCEP (1 mM), and Ca^2+ (30 μM) for 10 min at 37° C. […] (5 μM) was then added and the mixture incubated an additional 20 min. The reaction was quenched with EDTA (10 μM) and samples were ran using 4-16% SDS PAGE gel, subsequently transferred to PVDF membrane and visualized by Pierce ECL (Enhanced chemiluminescent) western blotting substrate, intensity of each blot was calculated using densitometry software. Relative inhibition of each enzyme was calculated with respect to enzyme activity in the absence of inhibitor. Inhibitor preference to Cal1cat with respect to CathB, was calculated by dividing relative Cal1cat inhibition with relative CathB inhibition of that particular inhibitor.

[5] = ki/Ki calculated relative to E-64
[6] = mean ± S.D. of triplicate experiments
[7] = >1: inhibition not quantifiable at 1 μM

Sequence of papain (P00784 134-345): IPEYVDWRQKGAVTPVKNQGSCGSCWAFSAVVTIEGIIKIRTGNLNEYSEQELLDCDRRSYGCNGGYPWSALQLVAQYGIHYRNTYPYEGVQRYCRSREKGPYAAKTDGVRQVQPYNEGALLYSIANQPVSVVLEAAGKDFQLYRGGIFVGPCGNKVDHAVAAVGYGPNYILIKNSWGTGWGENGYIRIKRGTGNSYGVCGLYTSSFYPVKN

- IC50 (full-length human Cal1 [1]; [7]): > 1000 nM
- IC50 (full-length human Cal1 [3]): > 1000 nM
SMILES: O=C(Nc1nc(-c2ccc(F)cc2)cs1)[C@H](Cc1c[nH]cn1)NC(=O)[C@@H]1O[C@H]1C(=O)O [Compound 30b, (2R,3R)-3-((S)-1-(4-(4-fluorophenyl)thiazol-2-ylamino)-3-(1H-imidazol-4-yl)-1-oxopropan-2-ylcarbamoyl)oxirane-2-carboxylic acid]

- IC50 (full-length human Cal1 [1]): 100 nM
- IC50 (full-length human Cal1 [3]): 50 nM
SMILES: CC(C)C[C@H](NC(=O)[C@H]1O[C@@H]1C(=O)O)C(=O)Nc1c(F)cccc1F [Compound 23a, (2S,3S)-3-((S)-1-(2,6-difluorophenylamino)-4-methyl-1-oxopentan-2-ylcarbamoyl)oxirane-2-carboxylic acid]

Continued, compound first:

SMILES: C#Cc1ccc(-c2csc(NC(=O)[C@H](Cc3cscn3)NC(=O)[C@H]3O[C@@H]3C(=O)O)n2)cc1 [Compound 34, (2S,3S)-3-((S)-1-(4-(4-ethynylphenyl)thiazol-2-ylamino)-1-oxo-3-(thiazol-4-yl)propan-2-ylcarbamoyl)oxirane-2-carboxylic acid]
- Ki (papain; apparent equilibrium constant, read-out: K1 Papain): 9700 nM
- ki Papain (papain; inhibition rate): 21.6 s⁻¹
- rel Papain (papain; [5]): 0.40
- 10^−5 × ki/Ki Papain (papain; [6]): 22.3 ± 0.24
- IC50 (full-length human Cal1 [1]): 100 nM
- Relative Selectivity ([2]; Cal1 over papain, ki/Ki relative to E-64 set at 1.0): 3.3
- Ki ([2]; apparent equilibrium constant, full length Cal1, read-out: K1 Calpain1): 3500 nM
- ki Calpain1 ([2]; inhibition rate, full length Cal1): 0.14 s⁻¹
- relative selectivity for inhibition of Cal1 over papain (in words) ([2]; ki/Ki as measure, compared with E-64): Cal1 selectivity
- rel Calpain1 [2, 5]: 1.3
- 10^−4 × ki/Ki Calpain1 [2, 6]: 3.89 ± 0.41

SMILES: O=C(NCc1cn(-c2ccc(Br)cc2)nn1)[C@H](Cc1cscn1)NC(=O)[C@H]1O[C@@H]1C(=O)O [Compound 55, (2S,3S)-3-((S)-1-((1-(4-bromophenyl)-1H-1,2,3-triazol-4-yl)methylamino)-1-oxo-3-(thiazol-4-yl)propan-2-ylcarbamoyl)oxirane-2-carboxylic acid]
- Cal1 inhibition (in words) (full-length human Cal1 [3]): potent activity
- IC50 (full-length human Cal1 [3]): 40 nM
- potency for LTP rescue compared with E64 [4]: did not surpass

SMILES: CC(C)C[C@H](NC(=O)[C@H]1O[C@@H]1C(=O)O)C(=O)NCCCCNC(=O)CCCC[C@@H]1SC[C@@H]2NC(=O)N[C@@H]21 [Compound 27, (2S,3S)-3-((S)-4-methyl-1-oxo-1-(4-(5-((3aS,4S,6aR)-2-oxohexahydro-1H-thieno[3,4-d]imidazol-4-yl)pentanamido)butylamino)pentan-2-ylcarbamoyl)oxirane-2-carboxylic acid]
- IC50 (full-length human Cal1 [1]): 100 nM
- Cal1 inhibition (in words) (full-length human Cal1 [3]): shown to be a Cal1 inhibitor
- IC50 (full-length human Cal1 [3]): 150 nM
- covalent modification of Cal1 and CathB (anti-biotin immunoblotting) (Cal1cat vs CathB): covalently modify both Cal1 and CathB

SMILES: O=C(O)[C@H]1O[C@@H]1C(=O)NC1(C(=O)NCCCCNS(=O)(=O)c2ccc(F)cc2)CCCCC1 [Compound 66]
- IC50 (full-length human Cal1 [3]): 1000 nM
- potency for LTP rescue compared with E64 [4]: surpassed E64

SMILES: NS(=O)(=O)c1ccc(-n2cc(CNC(=O)[C@H](Cc3cscn3)NC(=O)[C@H]3O[C@@H]3C(=O)O)nn2)cc1 [Compound 53, (2S,3S)-3-((S)-1-oxo-1-((1-(4-sulfamoylphenyl)-1H-1,2,3-triazol-4-yl)methylamino)-3-(thiazol-4-yl)propan-2-ylcarbamoyl)oxirane-2-carboxylic acid]
- IC50 (full-length human Cal1 [1]; [7]): > 1000 nM
- Cal1 inhibition (in words) (full-length human Cal1 [3]): relatively high IC50 values
- IC50 (full-length human Cal1 [3]): > 1000 nM
